Laboratory results taken from EP4001293A1, “TETRAPEPTIDE AND ITS USE” (Justus-Liebig-Universität Gießen, priority 2020, dated 2022).
Peptide text beside a SMILES is read from it.

Assays:
Format in all cases: cell-based
SAOS-2-Zellen [1] = test: Stimulation of ossification, Alizarin red staining
Description: Die Ausführungsbeispiele zeigen, dass die Tetrapeptide Seq ID 1-6 wenigstens die gleiche Wirksamkeit aufweisen wie Testosteron und die Testosteronanaloga. Dabei weisen sie als Tetrapeptide jedoch nicht die hormonbedingten Nebenwirkungen auf, da sie nur am membrangebundenen Androgenrezeptor ZIP-9 binden und nicht im Zellkern am klassischen Androgenrezeptor (AR). Eine besonders positive Wirkung kommt dem erfindungsgemäßen Tetrapeptid 1 Seq ID 1 zu. Die Wirksamkeit der erfindungsgemäßen Tetrapeptide Seq ID 1-6 zur Behandlung der Osteoporose, myodegenerativen Erkrankungen (zum Beispiel Muskeldystrophie, insbesondere jedoch Muskelatrophie) sowie der männlichen Infertilität wird experimentell in Zellkultur in einem charakteristischen Zellmodell gezeigt. Zur Verabreichung an Menschen und Tiere wird mindestens ein erfindungsgemäße Tetrapeptid als medizinisches Mittel in einer pharmazeutisch akzeptablen Komposition als Arzneimittel formuliert. Das medizinische Mittel wird zur Behandlung der Osteoporose, myodegenerativen Erkrankungen sowie der männlichen Infertilität bei Menschen und Tieren eingesetzt. Es löst dabei keine übermäßige Toxizität, Irritationen oder allergische Reaktionen aus. Bevorzugt wird das medizinische Mittel umfassend mindestens ein erfindungsgemäßes Tetrapeptid Menschen oder Tieren in Form entweder oral, intramuskulär, intraossär, rektal, parenteral, intravenös, subkutan, intracisternal, intravaginal, intraperitoneal, intrathekal, intravasculär, lokal (Puder, Salbe oder Tropfen), in Sprayform oder als Pflaster verabreicht. Dosierungsformen für die örtliche Administration des medizinischen Mittels dieser Erfindung schließen Salben, Puder, Sprays oder Inhalationsmittel ein. Das mindestens eine erfindungsgemäße Tetrapeptid als medizinisches Mittel wird unter sterilen Bedingungen mit einem physiologisch akzeptablen Trägerstoff und möglichen Konservierungsmitteln, Puffern oder Treibmitteln, je nach Bedarf, vermischt. Ein Konservierungsmittel ist eine Chemikalie, die zugesetzt wird, um die Zersetzung zu verhindern. Es hilft, das medizinische Mittel gegen Bakterien- und Pilzbefall oder Abbau durch Enzyme zu schützen, indem es das Wachstum von Bakterien oder Pilzen verhindern und/oder die Zersetzung des Mittels verlangsamt. Bevorzugt wird das medizinische Mittel dieser Erfindung als Lyophilisat hergestellt. Bevorzugt wird das medizinische Mittel dieser Erfindung oral verabreicht. Da das darin enthaltene mindestens eine Tetrapeptid sehr klein ist, wird es von proteolytischen Enzymen nicht so rasch abgebaut und kann seine Wirksamkeit am ZIP-9 Rezeptor sehr selektiv und sehr spezifisch entfalten. Die Tetrapeptide Seq ID 1-6 werden gemäß Verfahren, die der Fachmann kennt, einfach und mit geringen Kosten hergestellt. Sie weisen in lyophilisierter Form eine lange Lagerungsbeständigkeit und hohe Aktivität auf. Die Lagerung ist bei Raumtemperatur möglich. Ein Vorteil ist, dass aufgrund der hohen Spezifität nur geringe Mengen verabreicht werden müssen, um an den ZIP-9 Rezeptor zu binden und dort die positiven Effekte auszulösen. In einem besonderen Ausführungsbeispiel wird das Tetrapeptid Seq ID 1 verkapselt, damit es im Magen-Darm-Trakt nicht abgebaut (säure-hydrolysiert), sondern als Tetrapeptid in den Blutkreislauf aufgenommen wird. Dazu werden z.B. mesoporöse Silicapartikel verwendet, die die Bioverfügbarkeit verlängern. Alternativ werden an das Tetrapeptid Polymere angehängt, wie z.B. Polyethlenglycolgruppen (PEGylierung). […]

[2] = test system: Alkalischen Phosphatase (ALP); test: Expression of alkaline phosphatase, immunofluorescence; conditions: SAOS-2 Osteoblasten; for Expression der Alkalischen Phosphatase (grüne Fluoreszenz): Fig. 2A, 2B
Description: Die Ausführungsbeispiele zeigen, dass die Tetrapeptide Seq ID 1-6 wenigstens die gleiche Wirksamkeit aufweisen wie Testosteron und die Testosteronanaloga. Dabei weisen sie als Tetrapeptide jedoch nicht die hormonbedingten Nebenwirkungen auf, da sie nur am membrangebundenen Androgenrezeptor ZIP-9 binden und nicht im Zellkern am klassischen Androgenrezeptor (AR). Eine besonders positive Wirkung kommt dem erfindungsgemäßen Tetrapeptid 1 Seq ID 1 zu. Die Wirksamkeit der erfindungsgemäßen Tetrapeptide Seq ID 1-6 zur Behandlung der Osteoporose, myodegenerativen Erkrankungen (zum Beispiel Muskeldystrophie, insbesondere jedoch Muskelatrophie) sowie der männlichen Infertilität wird experimentell in Zellkultur in einem charakteristischen Zellmodell gezeigt. Zur Verabreichung an Menschen und Tiere wird mindestens ein erfindungsgemäße Tetrapeptid als medizinisches Mittel in einer pharmazeutisch akzeptablen Komposition als Arzneimittel formuliert. Das medizinische Mittel wird zur Behandlung der Osteoporose, myodegenerativen Erkrankungen sowie der männlichen Infertilität bei Menschen und Tieren eingesetzt. Es löst dabei keine übermäßige Toxizität, Irritationen oder allergische Reaktionen aus. Bevorzugt wird das medizinische Mittel umfassend mindestens ein erfindungsgemäßes Tetrapeptid Menschen oder Tieren in Form entweder oral, intramuskulär, intraossär, rektal, parenteral, intravenös, subkutan, intracisternal, intravaginal, intraperitoneal, intrathekal, intravasculär, lokal (Puder, Salbe oder Tropfen), in Sprayform oder als Pflaster verabreicht. Dosierungsformen für die örtliche Administration des medizinischen Mittels dieser Erfindung schließen Salben, Puder, Sprays oder Inhalationsmittel ein. Das mindestens eine erfindungsgemäße Tetrapeptid als medizinisches Mittel wird unter sterilen Bedingungen mit einem physiologisch akzeptablen Trägerstoff und möglichen Konservierungsmitteln, Puffern oder Treibmitteln, je nach Bedarf, vermischt. Ein Konservierungsmittel ist eine Chemikalie, die zugesetzt wird, um die Zersetzung zu verhindern. […]

[3] = test system: Fokalen Adhäsionskinase (FAK); test: Stimulation/activation of focal adhesion kinase, fluorescence measurement; conditions: L6-Myoblasten
Description: (§1) Die Ausführungsbeispiele zeigen, dass die Tetrapeptide Seq ID 1-6 wenigstens die gleiche Wirksamkeit aufweisen wie Testosteron und die Testosteronanaloga. Dabei weisen sie als Tetrapeptide jedoch nicht die hormonbedingten Nebenwirkungen auf, da sie nur am membrangebundenen Androgenrezeptor ZIP-9 binden und nicht im Zellkern am klassischen Androgenrezeptor (AR). Eine besonders positive Wirkung kommt dem erfindungsgemäßen Tetrapeptid 1 Seq ID 1 zu. Die Wirksamkeit der erfindungsgemäßen Tetrapeptide Seq ID 1-6 zur Behandlung der Osteoporose, myodegenerativen Erkrankungen (zum Beispiel Muskeldystrophie, insbesondere jedoch Muskelatrophie) sowie der männlichen Infertilität wird experimentell in Zellkultur in einem charakteristischen Zellmodell gezeigt. Zur Verabreichung an Menschen und Tiere wird mindestens ein erfindungsgemäße Tetrapeptid als medizinisches Mittel in einer pharmazeutisch akzeptablen Komposition als Arzneimittel formuliert. Das medizinische Mittel wird zur Behandlung der Osteoporose, myodegenerativen Erkrankungen sowie der männlichen Infertilität bei Menschen und Tieren eingesetzt. Es löst dabei keine übermäßige Toxizität, Irritationen oder allergische Reaktionen aus. […]

L6-Myoblasten [4] = test: Formation of myotubes (muscle fibres) from myoblasts; conditions: 9 Stunden Inkubation, Fig. 3B
Description: as §1

Myogenin = test: Stimulation of myogenin formation, fluorescence measurement; conditions: L6-Myoblasten; relative to control sample without tetrapeptide
Description: as §1

[5] = test system: Zonula Occludens-1 (ZO-1); test: Stimulation of ZO-1 expression, fluorescence measurement; conditions: Sertoli-Zellen; Fig. 4B-4D
Description: Experimentell erfolgt die Quantifizierung der Stimulation der Bildung von ZO-1 in 93RS2 Sertoli-Zellen durch quantitative Auswertung der Messung der Expression von ZO-1. Der quantitative Messwert zur Beschreibung der Stimulation der Expression von ZO-1 ist die Häufigkeit (Frequenz), mit der mindestens ein bestimmter Wert ("Wert") der Fluoreszenzintensität gemessen wird. Die Bedeutung der Begriffe "Häufigkeit"/"Frequenz" und "Wert"/"Wert der Fluoreszenzintensität" ist dabei analog der Bedeutung im Zusammenhang mit der Alkalischen Phosphatase und bezieht sich hierbei auf Fig. 4F bzw. Fig. 4G bzw. Fig. 4H bzw. Fig. 4I. Die Häufigkeit des mindestens einen bestimmten Wertes der in den mit dem erfindungsgemäßen Tetrapeptid behandelten Zellen gemessenen Werte im direkten Vergleich mit der Häufigkeit des mindestens einen gleichen Wertes, die in Tetrapeptid-freien aber ansonsten gleich behandelten Kontrollzellen gemessen wird, beträgt ab dem Wert 70 mindestens 120 % der in den gleich behandelten Kontrollzellen gemessenen Häufigkeit ab dem Wert 70.
Die Durchführung des Färbevorganges erfolgt bei allen Proben (Referenz, Vergleichsprobe mit Testosteron und Tetrapeptid) in gleicher Weise, so dass die Farbstärke (erkennbar in der photographischen Darstellung in Fig. 1A und Fig. 1B anhand der Grauwerte in der jeweiligen Abbildung) als Maß für die Stimulierung dient (je dunkler der Grauwert, umso stärker die Stimulation zur Ossifikation). […] Dem Fachmann sind diese Zusammenhänge bekannt, ebenso weiß er wie Untersuchungen der Expression von Enzymen, und somit auch der ALP, quantitativ durchgeführt werden, so dass darauf hier nur allgemein eingegangen werden muss. […] Im Rahmen der vorliegenden Ausführungsbeispiele (Beispielmessungen) wurden alle dem Fachmann bekannten Parameter, beispielsweise Lösungsmittel- und Pufferzusammensetzungen sowie -Konzentrationen, Temperaturen, Geräteeinstellungen (z. B. für die Messung der Fluoreszenzstärke) usw. in geeigneten Grenzen konstant gehalten, so dass die Versuchsergebnisse die beschriebenen quantitativ-vergleichbaren relativen Ergebnisse liefern. […]

Claudin-1 = test: Stimulation of Claudin-1 formation, fluorescence measurement; conditions: 93RS2 Sertoli-Zellen; relative to control sample without tetrapeptide
Description: (§2) Die besondere Wirksamkeit von Tetrapeptid Seq ID 1 umfasst weiterhin die Stimulierung der Bildung von Claudin-1 und Claudin-5 in Zellen. Claudine sind kleine Transmembranproteine, die in vielen Organismen, Menschen und Tieren vorkommen und in ihrem Aufbau sehr ähnlich sind. Sie haben entscheidende Funktionen zur Bildung einer funktionierenden Barriere in verschiedenen Epithelien. Es gibt zahlreiche […] von Claudinen, die weitgehend ubiquitär exprimiert sind und Grundfunktionen für die Bildung der Tight-Junction-Bänder übernehmen. Caudin-1 und Claudin-5 sind spezialisierte Claudine, die an der Blut-Hoden-Schranke der männlichen Gonaden exprimiert werden. Ihre Beteiligung an der Ausbildung und Aufrechterhaltung der Tight Junctions an der Blut-Hoden-Schranke schützt die männlichen Keimzellen vor Angriffen des eigenen Immunsystems. Somit gehen Defekte der Blut-Hoden-Schranke immer mit Infertilität einher. […] Experimentell erfolgt die Quantifizierung der Stimulation der Bildung von Claudin-1 und/oder Claudin-5 in der Zelle durch Fluoreszenzmessung. Der quantitative Messwert zur Beschreibung der Stimulation der Bildung von Claudin-1 und/oder Claudin-5 in 93RS2 Sertoli-Zellen ist die Fluoreszenzintensität der mit dem Tetrapeptid behandelten Zellen bei mikroskopischer Betrachtung im direkten Vergleich mit einer gleichbehandelten Kontrollprobe ohne Tetrapeptid.

Claudin-5 = test: Stimulation of Claudin-5 formation, fluorescence measurement; conditions: 93RS2 Sertoli-Zellen; relative to control sample without tetrapeptide
Description: as §2

SAOS-2-Zellen [6] = test: Stimulation of ossification, Alizarin red staining; remark: listed apart in the source
Description: (§3) Zur Verabreichung an Menschen und Tiere wird mindestens ein erfindungsgemäße Tetrapeptid als medizinisches Mittel in einer pharmazeutisch akzeptablen Komposition als Arzneimittel formuliert. […] Bevorzugt wird das medizinische Mittel umfassend mindestens ein erfindungsgemäßes Tetrapeptid Menschen oder Tieren in Form entweder oral, intramuskulär, intraossär, rektal, parenteral, intravenös, subkutan, intracisternal, intravaginal, intraperitoneal, intrathekal, intravasculär, lokal (Puder, Salbe oder Tropfen), in Sprayform oder als Pflaster verabreicht. Dosierungsformen für die örtliche Administration des medizinischen Mittels dieser Erfindung schließen Salben, Puder, Sprays oder Inhalationsmittel ein. Das mindestens eine erfindungsgemäße Tetrapeptid als medizinisches Mittel wird unter sterilen Bedingungen mit einem physiologisch akzeptablen Trägerstoff und möglichen Konservierungsmitteln, Puffern oder Treibmitteln, je nach Bedarf, vermischt. Ein Konservierungsmittel ist eine Chemikalie, die zugesetzt wird, um die Zersetzung zu verhindern. […] Bevorzugt wird das medizinische Mittel dieser Erfindung als Lyophilisat hergestellt. Bevorzugt wird das medizinische Mittel dieser Erfindung oral verabreicht.

[7] = test system: Alkalischen Phosphatase (ALP); test: Expression of alkaline phosphatase, immunofluorescence; conditions: SAOS-2 Osteoblasten; Fig. 2A, 2B
Description: as §3

[8] = test system: Fokalen Adhäsionskinase (FAK); test: Stimulation/activation of focal adhesion kinase, fluorescence measurement; conditions: L6-Myoblasten; 6 Stunden Inkubation; versus reference sample; Fig. 3A
Description: as §3

L6-Myoblasten [9] = test: Formation of myotubes (muscle fibres) from myoblasts; conditions: 9 Stunden Inkubation, Fig. 3B; remark: listed apart in the source
Description: as §3

Q: Which results are given for `CC[C@H](C)[C@H](N)C(=O)N[C@@H](C)C(=O)N1CCC[C@H]1C(=O)NCC(=O)O` [Peptid-1, IAPG] (H-IAPG-OH)?
A: Stimulierung der Ossifikation (SAOS-2-Zellen [1]; 4 Tagen Inkubation, Fig. 1A): Stimulierung der Ossifikation; Stimulierung der Ossifikation (SAOS-2-Zellen [1]; 11 Tagen Inkubation, Fig. 1B): Stimulierung der Ossifikation; Farbstärke (Alizarinrot) (SAOS-2-Zellen [1]; relative to equally treated control sample without tetrapeptide): wenigstens den dreifachen Wert; Expression der Alkalischen Phosphatase (grüne Fluoreszenz) [2]: Abnahme der grünen Fluoreszenz; Häufigkeit (Frequenz) der Fluoreszenzintensität, Expression der ALP ([2]; ab dem Wert 65, % of frequency in tetrapeptide-free control cells): ≤ 50%; grüne Fluoreszenz (FAK) ([3]; 6 Stunden Inkubation, versus reference sample, Fig. 3A): stärkere grüne Fluoreszenz; Fluoreszenzintensität (FAK) ([3]; relative to control sample without tetrapeptide): wenigstens den dreifachen Wert; Bildung von Myotuben (Muskelfasern) (L6-Myoblasten [4]): Myotuben (= Muskelfasern) gebildet; Bildung von Myotuben (Muskelfasern) (L6-Myoblasten [4]; listed as Tetrapeptid Seq ID 1): die Muselfaserbildung stimuliert; Fluoreszenzintensität (Myogenin) (Myogenin): wenigstens den dreifachen Wert; Expression von Zonula occludens-1 (ZO-1) [5]: stimulierenden Wirkung; Fluoreszenzintensität (Claudin-1) (Claudin-1): wenigstens den dreifachen Wert; Fluoreszenzintensität (Claudin-5) (Claudin-5): wenigstens den dreifachen Wert

Q: Which results are given for `CC(C)[C@H](NC(=O)CN)C(=O)N[C@@H](CO)C(=O)NCC(=O)O` [Peptid-2, GVSG] (H-GVSG-OH)?
A: Stimulierung der Ossifikation (SAOS-2-Zellen [1]; 4 Tagen Inkubation, Fig. 1A): Stimulierung der Ossifikation; Stimulierung der Ossifikation (SAOS-2-Zellen [1]; 11 Tagen Inkubation, Fig. 1B): Stimulierung der Ossifikation; Expression der Alkalischen Phosphatase (grüne Fluoreszenz) [2]: Abnahme der grünen Fluoreszenz; Expression von Zonula occludens-1 (ZO-1) [5]: stimulierenden Wirkung

Q: With `C[C@]12CC[C@H]3[C@@H](CCC4=CC(=O)CC[C@@]43C)[C@@H]1CC[C@@H]2O` [Testosteron] as the compound, how does the “Stimulierung der Ossifikation” value (SAOS-2-Zellen [6]; 4 Tagen Inkubation, Fig. 1A) read?
A: Its value is “Stimulierung der Ossifikation”.

Q: And the “Stimulierung der Ossifikation” value (SAOS-2-Zellen [6]; 11 Tagen Inkubation, Fig. 1B)?
A: Its value is “Stimulierung der Ossifikation”.

Q: What about the “Expression der Alkalischen Phosphatase (grüne Fluoreszenz)” value [7] of the same compound?
A: Its value is “Abnahme der grünen Fluoreszenz”.

Q: And the “grüne Fluoreszenz (FAK)” value [8]?
A: Its value is “stärkere grüne Fluoreszenz”.

Q: What about the “Bildung von Myotuben (Muskelfasern)” value (L6-Myoblasten [9]) of the same compound?
A: Its value is “Myotuben (= Muskelfasern) gebildet”.

Q: With GWG [Peptid-3] as the compound, how does the “Expression von Zonula occludens-1 (ZO-1)” value [5] read?
A: The value was “stimulierenden Wirkung”.
